Key:
Assay in all cases: sensitivity of leukemia/lymphoma cell line, 5 uM cut-off
Type in all cases: cell-based
CCRF-HSB-2 = details: Homo sapiens, read-out: sensitivity class by EC50
Method: (§1) The following SCLC cell lines were obtained from ATCC (Manassis, Va.): NCI-H889, NCI-H1963, NCI-H1417, NCI-H146, NCI-H187, DMS53, NCI-H510, NCI-H209, NCI-H211, NCI-H345, NCI-H524, NCI-H69, DMS79, SHP77, NCI-H1688, NCI-H446, NCI-H740, NCI-H1048, NCI-H82, NCI-H196, SW1271, H69AR, NCI-H526, NCI-H865, NCI-H748, NCI-H711, and DMS114. All cells were cultured in the ATCC recommended media at 37° C. in a humidified atmosphere containing 5% CO2. The following leukemia and lymphoma cell lines were obtained from ATCC (Manassis, Va.): MV-4-11, RS4;11, Loucy, KG-1A, DOHH2, Rs11380, CCRF-HSB-2, CCRF-CEM, CEM/C1, Reh, SUP-B15, MOLT-4, SUDHL4, HL-60, RPMI 8226, A3, Daudi, WSU-NHL, Pfeiffer, Jurkat I 9.2, Jurkat, MEG-01, U-937, K-562, and Raji.
(§2) The 25 leukemia/lymphoma cell lines were also tested for sensitivity to ABT-737 using the 5 uM cut-off, and sensitive cell lines were MV-4-11, RS4;11, Loucy, KG-1A, DOHH2, Rs11380, CCRF-HSB-2, CCRF-CEM, CEM/C1, Reh, SUP-B15, MOLT-4, SUDHL4, HL-60, RPMI 8226, A3, Daudi, WSU-NHL, Pfeiffer, and Jurkat I 9.2, and the resistant cell lines Jurkat, MEG-01, U-937, K-562, and Raji.
as §2, with “ABT-263” for “ABT-737”

Jurkat I 9.2 = details: Homo sapiens, read-out: sensitivity class by EC50
Method: as §1, §2
as §2, with “ABT-263” for “ABT-737”

Jurkat = details: Homo sapiens, read-out: sensitivity class by EC50
Method: as §1, §2
as §2, with “ABT-263” for “ABT-737”

Loucy = details: Homo sapiens, read-out: sensitivity class by EC50
Method: as §1, §2
as §2, with “ABT-263” for “ABT-737”

HL-60 = details: Homo sapiens, read-out: sensitivity class by EC50
Method: as §1, §2
as §2, with “ABT-263” for “ABT-737”

MV-4-11 = details: Homo sapiens, MV4-11, read-out: sensitivity class by EC50
Method: as §1, §2
as §2, with “ABT-263” for “ABT-737”

Reh = details: Homo sapiens, read-out: sensitivity class by EC50
Method: as §1, §2
as §2, with “ABT-263” for “ABT-737”

Daudi = details: Homo sapiens, read-out: sensitivity class by EC50
Method: as §1, §2
as §2, with “ABT-263” for “ABT-737”

U-937 = details: Homo sapiens, read-out: sensitivity class by EC50
Method: as §1, §2
as §2, with “ABT-263” for “ABT-737”

CEM/C1 = details: Homo sapiens, read-out: sensitivity class by EC50
Method: as §1, §2
as §2, with “ABT-263” for “ABT-737”

RS4;11 = details: Homo sapiens, read-out: sensitivity class by EC50
Method: as §1, §2
as §2, with “ABT-263” for “ABT-737”

KG-1A = details: Homo sapiens, read-out: sensitivity class by EC50
Method: as §1, §2
as §2, with “ABT-263” for “ABT-737”

SUDHL4 = details: Homo sapiens, SU-DHL-4, read-out: sensitivity class by EC50
Method: as §1, §2
as §2, with “ABT-263” for “ABT-737”

MEG-01 = details: Homo sapiens, read-out: sensitivity class by EC50
Method: as §1, §2
as §2, with “ABT-263” for “ABT-737”

MOLT-4 = details: Homo sapiens, read-out: sensitivity class by EC50
Method: as §1, §2
as §2, with “ABT-263” for “ABT-737”

RPMI 8226 = details: Homo sapiens, read-out: sensitivity class by EC50
Method: as §1, §2
as §2, with “ABT-263” for “ABT-737”

WSU-NHL = details: Homo sapiens, read-out: sensitivity class by EC50
Method: as §1, §2
as §2, with “ABT-263” for “ABT-737”

Pfeiffer = details: Homo sapiens, read-out: sensitivity class by EC50
Method: as §1, §2
as §2, with “ABT-263” for “ABT-737”

CCRF-CEM = details: Homo sapiens, read-out: sensitivity class by EC50
Method: as §1, §2
as §2, with “ABT-263” for “ABT-737”

Rs11380 = details: Homo sapiens, read-out: sensitivity class by EC50
Method: as §1, §2
as §2, with “ABT-263” for “ABT-737”

SUP-B15 = details: Homo sapiens, read-out: sensitivity class by EC50
Method: as §1, §2
as §2, with “ABT-263” for “ABT-737”

Raji = details: Homo sapiens, read-out: sensitivity class by EC50
Method: as §1, §2
as §2, with “ABT-263” for “ABT-737”

K-562 = details: Homo sapiens, K562, read-out: sensitivity class by EC50
Method: as §1, §2
as §2, with “ABT-263” for “ABT-737”

DOHH2 = details: Homo sapiens, DOHH-2, read-out: sensitivity class by EC50
Method: as §1, §2
as §2, with “ABT-263” for “ABT-737”

A3 = details: Homo sapiens, read-out: sensitivity class by EC50
Method: as §1, §2
as §2, with “ABT-263” for “ABT-737”

Row | EC50 (CCRF-HSB-2) [µM] | EC50 (Jurkat I 9.2) [µM] | EC50 (Jurkat) [µM] | EC50 (Loucy) [µM] | EC50 (HL-60) [µM] | EC50 (MV-4-11) [µM] | EC50 (Reh) [µM] | EC50 (Daudi) [µM] | EC50 (U-937) [µM] | EC50 (CEM/C1) [µM] | EC50 (RS4;11) [µM] | EC50 (KG-1A) [µM] | EC50 (SUDHL4) [µM] | EC50 (MEG-01) [µM] | EC50 (MOLT-4) [µM] | EC50 (RPMI 8226) [µM] | EC50 (WSU-NHL) [µM] | EC50 (Pfeiffer) [µM] | EC50 (CCRF-CEM) [µM] | EC50 (Rs11380) [µM] | SMILES | other results
1 | < 5 | < 5 | > 5 | < 5 | < 5 | < 5 | < 5 | < 5 | > 5 | < 5 | < 5 | < 5 | < 5 | > 5 | < 5 | < 5 | < 5 | < 5 | < 5 | < 5 | CC1(C)CCC(c2ccc(Cl)cc2)=C(CN2CCN(c3ccc(C(=O)NS(=O)(=O)c4ccc(N[C@H](CCN5CCOCC5)CSc5ccccc5)c(S(=O)(=O)C(F)(F)F)c4)cc3)CC2)C1 [ABT-263, N-(4-(4-((2-(4-chlorophenyl)-5,5-dimethyl-1-cyclohex-1-en-1-yl)methyl)piperazin-1-yl)benzoyl)-4-(((1R)-3-(morpholin-4-yl)-1-((phenylsulfanyl)methyl)propyl)amino)-3-((trifluoromethyl)sulfonyl)benzenesulfonamide] | EC50 (SUP-B15): < 5 µM; EC50 (Raji): > 5 µM; EC50 (K-562): > 5 µM; EC50 (DOHH2): < 5 µM; EC50 (A3): < 5 µM
2 | < 5 | < 5 | > 5 | < 5 | < 5 | < 5 | < 5 | < 5 | > 5 | < 5 | < 5 | < 5 | < 5 | > 5 | < 5 | < 5 | < 5 | < 5 | < 5 | < 5 | CN(C)CC[C@H](CSc1ccccc1)Nc1ccc(S(=O)(=O)NC(=O)c2ccc(N3CCN(Cc4ccccc4-c4ccc(Cl)cc4)CC3)cc2)cc1[N+](=O)[O-] [ABT-737, N-(4-(4-((4′-chloro(1,1′-biphenyl)-2-yl)methyl)piperazin-1-yl)benzoyl)-4-(((1R)-3-(dimethylamino)-1-((phenylsulfanyl)methyl)propyl)amino)-3-nitrobenzenesulfonamide] | EC50 (SUP-B15): < 5 µM; EC50 (Raji): > 5 µM; EC50 (K-562): > 5 µM; EC50 (DOHH2): < 5 µM; EC50 (A3): < 5 µM

Reference: patent US20100028889A1, “COMPANION DIAGNOSTIC ASSAYS FOR CANCER THERAPY” (ABBOTT LABORATORIES, priority 2006, published 2010)
